# Results: patent US20170137426A1, “HETEROCYCLIC COMPOUNDS AS AXL INHIBITORS” (CHANGZHOU JIEKAI PHARMATECH CO., LTD., priority 2014, published 2017)
# Target: T1, human AXL (Homo sapiens, UniProt P30530)
# T1 construct: his-tagged catalytic domain (amino acids 473-894) from insect cells; His tag; purchased Invitrogen PV3971; host or cells: insect cells
# T1 sequence (P30530 473-894): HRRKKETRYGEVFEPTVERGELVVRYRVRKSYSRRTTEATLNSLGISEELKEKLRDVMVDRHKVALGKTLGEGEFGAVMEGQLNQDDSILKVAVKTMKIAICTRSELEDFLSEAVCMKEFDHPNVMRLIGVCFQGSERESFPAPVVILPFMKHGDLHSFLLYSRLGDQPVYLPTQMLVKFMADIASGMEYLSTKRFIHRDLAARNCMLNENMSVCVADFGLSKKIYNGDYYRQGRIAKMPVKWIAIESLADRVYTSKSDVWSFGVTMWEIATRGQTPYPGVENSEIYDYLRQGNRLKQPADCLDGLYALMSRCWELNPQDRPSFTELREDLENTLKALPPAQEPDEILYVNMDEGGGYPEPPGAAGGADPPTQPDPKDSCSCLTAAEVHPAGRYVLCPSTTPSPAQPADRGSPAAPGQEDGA
# Assay: AXL enzymatic assay (LanthaScreen TR-FRET)
# Format: biochemical
# Conditions: recombinant his-tagged catalytic domain (aa 473-894), 18 μM ATP (around Km), 200 nM Poly GT substrate, 1 h reaction
# Experimental: Example 3: AXL Enzymatic Assay
# Compounds were tested in a LanthaScreen™ time-resolved fluorescence energy transfer (TR-FRET) enzymatic assay from Invitrogen. The assay used human AXL (Invitrogen, Cat. PV3971) recombinantly expressed his-tagged catalytic domain (amino acids 473-894) from insect cells. The substrate was fluorescein-labeled Poly GT (Invitrogen, Cat. PV3610). Test compounds were prepared and diluted in DMSO in 3-fold serial dilutions to 100× of the final testing concentrations. The compounds were then further diluted to 4× by the kinase reaction buffer (Invitrogen, Cat. PV3189). The enzymatic reaction for compound testing was performed in a white 384-well polypropylene plate (Packard, Cat. 6005214) with a total reaction volume of 10 μl containing 200 ng/ml AXL, 200 nM substrate, and 18 μM ATP that is around its Km. The assay started with loading 2.5 μl of AXL diluted in kinase reaction buffer to wells, followed by addition of equal volume of 4× compounds for 15-min incubation at the room temperature for pre-treatment. The enzymatic reaction was initiated by addition of 5 μl of mixture of the substrate and ATP prepared in kinase reaction buffer. After one hour reaction, 10 μl mixture of EDTA (final 10 mM) and terbium-labeled anti-PY20 antibody (final 2 nM) (Invitrogen, Cat. PV3552) prepared in TR-FRET antibody dilution buffer (Invitrogen, Cat. PV3574) was added to stop the enzymatic reaction and produce TR-FRET signals. After 30 minutes of incubation at room temperature, the plate was read in Tecan Infinite F200 Pro with the following settings: Excitation 340 nm (30)/Emission1 495 nm (10)/Emission2 520 nm (25). The TR-FRET values were dimensionless numbers that were calculated as the ratio of the acceptor ([…]) signal to the donor (Terbium) signal. Percent of control was calculated as the percentage of compound-treated vs 1% DMSO vehicle-treated. The dose-response curves were generated and the IC50s were calculated by nonlinear sigmoid curve fitting using GraphPad Prism.
structure (smiles),measurement,value
"CC(C)Oc1cccc(-n2ccc3cnc(Nc4ccc5c(c4)CCC(N4CCCC4)CC5)nc32)c1 (stereo not drawn) [Compound 3, 7-(3-isopropoxyphenyl)-N-(7-(pyrrolidin-1-yl)-6,7,8,9-tetrahydro-5H-benzo[7]annulen-2-yl)-7H-pyrrolo[2,3-d]pyrimidin-2-amine]",IC50,50 to 200 nM
"Cc1ccccc1Oc1ccccc1-n1ccc2cnc(Nc3ccc4c(c3)CCC(N3CCCC3)CC4)nc21 (stereo not drawn) [Compound 6, N-(7-(pyrrolidin-1-yl)-6,7,8,9-tetrahydro-5H-benzo[7]annulen-2-yl)-7-(2-(o-tolyloxy)phenyl)-7H-pyrrolo[2,3-d]pyrimidin-2-amine]",IC50,< 25 nM
"CC(C)Oc1ccccc1-n1ccc2cnc(Nc3ccc4c(c3)CCC(N3CCCC3)CC4)nc21 (stereo not drawn) [Compound 1, 7-(2-isopropoxyphenyl)-N-(7-(pyrrolidin-1-yl)-6,7,8,9-tetrahydro-5H-benzo[7]annulen-2-yl)-7H-pyrrolo[2,3-d]pyrimidin-2-amine]",IC50,25 to 50 nM
"CC(C)Oc1ccc(-n2ccc3cnc(Nc4ccc5c(c4)CCC(N4CCCC4)CC5)nc32)cc1 (stereo not drawn) [Compound 7, 7-(4-isopropoxyphenyl)-N-(7-(pyrrolidin-1-yl)-6,7,8,9-tetrahydro-5H-benzo[7]annulen-2-yl)-7H-pyrrolo[2,3-d]pyrimidin-2-amine]",IC50,25 to 50 nM
"COc1ccc(-n2ccc3cnc(Nc4ccc5c(c4)CCC(N4CCCC4)CC5)nc32)c(OC(C)C)c1 (stereo not drawn) [Compound 9, 7-(2-isopropoxy-4-methoxyphenyl)-N-(7-(pyrrolidin-1-yl)-6,7,8,9-tetrahydro-5H-benzo[7]annulen-2-yl)-7H-pyrrolo[2,3-d]pyrimidin-2-amine]",IC50,50 to 200 nM
"CC(C)Oc1cc(Cl)ccc1-n1ccc2cnc(Nc3ccc4c(c3)CCC(N3CCCC3)CC4)nc21 (stereo not drawn) [Compound 10, 7-(4-chloro-2-isopropoxyphenyl)-N-(7-(pyrrolidin-1-yl)-6,7,8,9-tetrahydro-5H-benzo[7]annulen-2-yl)-7H-pyrrolo[2,3-d]pyrimidin-2-amine]",IC50,< 25 nM
"c1ccc(-n2ccc3cnc(Nc4ccc5c(c4)CCC(N4CCCC4)CC5)nc32)c(OC2CCCCC2)c1 (stereo not drawn) [Compound 4, 7-(2-(cyclohexyloxy)phenyl)-N-(7-(pyrrolidin-1-yl)-6,7,8,9-tetrahydro-5H-benzo[7]annulen-2-yl)-7H-pyrrolo[2,3-d]pyrimidin-2-amine]",IC50,200 to 400 nM
"c1ccc(Oc2ccccc2-n2ccc3cnc(Nc4ccc5c(c4)CCC(N4CCCC4)CC5)nc32)cc1 (stereo not drawn) [Compound 5, 7-(2-phenoxyphenyl)-N-(7-(pyrrolidin-1-yl)-6,7,8,9-tetrahydro-5H-benzo[7]annulen-2-yl)-7H-pyrrolo[2,3-d]pyrimidin-2-amine]",IC50,700 to 800 nM
"Cc1ccccc1-c1ccc(-n2ccc3cnc(Nc4ccc5c(c4)CCC(N4CCCC4)CC5)nc32)cc1 (stereo not drawn) [Compound 12, 7-(2′-methyl-[1,1′-biphenyl]-4-yl)-N-(7-(pyrrolidin-1-yl)-6,7,8,9-tetrahydro-5H-benzo[7]annulen-2-yl)-7H-pyrrolo[2,3-d]pyrimidin-2-amine]",IC50,25 to 50 nM
"c1ccc(-c2ccc(-n3ccc4cnc(Nc5ccc6c(c5)CCC(N5CCCC5)CC6)nc43)cc2)cc1 (stereo not drawn) [Compound 8, 7-([1,1′-biphenyl]-4-yl)-N-(7-(pyrrolidin-1-yl)-6,7,8,9-tetrahydro-5H-benzo[7]annulen-2-yl)-7H-pyrrolo[2,3-d]pyrimidin-2-amine]",IC50,> 1000 nM
"CC(C)NC(=O)c1ccccc1-n1ccc2cnc(Nc3ccc4c(c3)CCC(N3CCCC3)CC4)nc21 (stereo not drawn) [Compound 11, N-isopropyl-2-(2-((7-(pyrrolidin-1-yl)-6,7,8,9-tetrahydro-5H-benzo[7]annulen-2-yl)amino)-7H-pyrrolo[2,3-d]pyrimidin-7-yl)benzamide]",IC50,> 1000 nM
"CC(C)Oc1cc(-c2ccccc2)ccc1-n1ccc2cnc(Nc3ccc4c(c3)CCC(N3CCCC3)CC4)nc21 (stereo not drawn) [Compound 14, 7-(3-isopropoxy-[1,1′-biphenyl]-4-yl)-N-(7-(pyrrolidin-1-yl)-6,7,8,9-tetrahydro-5H-benzo[7]annulen-2-yl)-7H-pyrrolo[2,3-d]pyrimidin-2-amine]",IC50,200 to 400 nM
"CC(C)Oc1cccnc1-n1ccc2cnc(Nc3ccc4c(c3)CCC(N3CCCC3)CC4)nc21 (stereo not drawn) [Compound 13, 7-(3-isopropoxypyridin-2-yl)-N-(7-(pyrrolidin-1-yl)-6,7,8,9-tetrahydro-5H-benzo[7]annulen-2-yl)-7H-pyrrolo[2,3-d]pyrimidin-2-amine]",IC50,200 to 400 nM
"CC(C)Oc1ccccc1-n1ccc2cnc(Nc3ccc4c(c3)CCN(C)CC4)nc21 [Compound 15, N-(7-(2-isopropoxyphenyl)-7H-pyrrolo[2,3-d]pyrimidin-2-yl)-3-methyl-2,3,4,5-tetrahydro-1H-benzo[d]azepin-7-amine]",IC50,200 to 400 nM
"CC(C)Oc1ccccc1-n1ccc2cnc(Nc3cnn(C4CCN(C)CC4)c3)nc21 [Compound 2, 7-(2-isopropoxyphenyl)-N-(1-(1-methylpiperidin-4-yl)-1H-pyrazol-4-yl)-7H-pyrrolo[2,3-d]pyrimidin-2-amine]",IC50,700 to 800 nM
